Legend:
Type in all cases: cell-based, human
pJak2 and pStat3 = test: Western blotting, IL-6 stimulation; conditions: MM.1S
Procedure: (§1) Cell pellets were lysed in RIPA buffer containing 50 mM Tris pH 8.0, 150 mM NaCl, 0.1% SDS, 0.5% deoxycholate, 1% NP-40, 1 mM DTT, 1 mM NaF, 1 mM sodium vanadate, and protease inhibitors cocktail (Sigma). For immunoprecipitations, cells were lysed on ice for 15 minutes in RIPA buffer. Lysates were centrifuged. The supernatant was incubated with indicated antibodies overnight, after which protein A/G Plus beads (Santa Cruz Biotechnology) were added and incubated for 3 h. The beads were washed 4 times in RIPA buffer. Then the beads were resuspended in 1× sample buffer and boiled for 3 min. Protein extracts were quantitated and loaded on 8% to 12% sodium dodecyl sulfate polyacrylamide gel, electrophoresed, and transferred to a nitrocellulose membrane (Whatman). The membrane was incubated with primary antibody, washed, and incubated with horseradish peroxidase (HRP)–conjugated secondary antibody (Pierce). Detection was performed by using a chemiluminescent western detection kit (Cell Signaling). […]
(§2) Figure 5 6-OAP overcomes the protective effects of IL-6, IGF-I and BMSCs on MM cells. […] Cell proliferation was assessed by MTT assay. […] Cell proliferation was assessed by MTT assay. *p<.01,** p<.05. […]

pIκBα and pP65 = test: Western blotting, TNF-α stimulation; conditions: MM.1S; 6-OAP 5 µM 12 h; TNF-α 5 ng/ml
Procedure: as §1, §2

[1] = tested on: normal PBMCs from 5 healthy volunteers; test: MTT assay on normal PBMCs; conditions: 48 h
Text: CD138+ cells from 7 MM patients were isolated with informed consent from BM mononuclear cells by using positive immunomagnetic column separation (Miltenyi Biotech, Auburn, CA). The purity of CD138+ cells is above 97% as determined by flow cytometry. BMSCs were generated from a MM patient-derived CD138-negative BM mononuclear cells cultured for 5 weeks. Peripheral blood mononuclear cells (PBMCs) from 5 healthy donors were separated by Ficoll-Hipaque density sedimentation.
U266, RPMI 8226 cells (1×10^4), primary CD138+ cells, PBMCs (5×10^4), and BMSCs (1×10^4) were cultured in 96-well dishes and incubated without or with 6-OAP at indicated concentration for 48 h. MM.1S and MM.1R cells (2×10^4) were seeded into 96-well dishes and pre-cultured for 24 h, then treated with 6-OAP for 48 h. Cell proliferation was determined by MTT assay. Cell viability was estimated by trypan blue dye exclusion.

CC=C(C)C(=O)OC1C2C(CC(C)C3C=CC(=O)C31C)OC(=O)C2C (stereo not shown) [6-OAP, 6-O-angeloylplenolin]
pStat3 in cells upon IL-6 (pJak2 and pStat3; IL-6 10 ng/ml, then 6-OAP 5 to 10 µM for 12 h): dramatically reduced
IL-6-induced pJak2 and pStat3 (pJak2 and pStat3; pretreatment 6-OAP for 12 hours, IL-6 10 ng/ml 10 to 30 min): markedly inhibited IL-6-induced upregulation of pJak2 and pStat3
TNF-α-induced pIκBα and pP65 (pIκBα and pP65): inhibited phosphorylation
growth of normal PBMCs [1]: did not drastically affect the growth

Reference: paper PMC3130785, “Small Compound 6-O-Angeloylplenolin Induces Mitotic Arrest and Exhibits Therapeutic Potentials in Multiple Myeloma” (PLoS ONE, 2011)
